Assay results as given in the supplement of paper PMC11208160.

experiment: recombinant UMI read abundance after kanamycin selection (control-corrected) (log10(CPM+1)); higher = more efficient recombination; extreme values may be limits of the assay; sequences stand for … in AGTGCAGAGAAAATCGGCCAGTTTTCTCTGCCTGCAGTCCGCATGCCGTGGGACCCCTTGGGTTCTAACCTGTTGCCTAGATTTATGCAGCGGACTGCCTTTCTCCCAAAGTGATAAACCGG…AGGTTGGTTTCACT; site = the 11-nt donor
Method: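 Pooled E. coli donor-specificity screen for the IS621 bridge recombinase. Each library member carries a reprogrammed 11-nt donor and a full-length LE bridge RNA expressed in cis from the natural promoter, with a paired donor-binding loop (8-nt LDG + 4-nt RDG) and a target-binding loop fixed to T5. It is co-electroporated with a T5 target plasmid; recombinase is induced with 0.07 mM IPTG and recombinants are selected on kanamycin. UMIs are counted as CPM, averaged over two biological replicates and corrected by the unselected control. Molecule = full bridge RNA written as DNA, built from the T5 scaffold: LDG = donor specificity nt 1-8, RDG = reverse complement of nt 8-11.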
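Note: IS621 bridge recombinase in Escherichia coli cells against a fixed T5 target plasmid.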

Going from “ACCTCCGCATGGACCGGTTTTCCCGGTAATCCGTATTTGAG (site ACCTCCGCTCT)” to “ACCTCTCCATGGACCGGTTTTCCCGGTAATCCGTATTTGCA (site ACCTCTCCTTG)”, the “recombinant UMI read abundance (log10)” value rises from 0.147 to 0.367.

First: ACCTGGACATGGACCGGTTTTCCCGGTAATCCGTATTTGAG (site ACCTGGACTCT)
Second: ACCTTTCCATGGACCGGTTTTCCCGGTAATCCGTATTTGGT (site ACCTTTCCTAC)
The “recombinant UMI read abundance (log10)” value of the first is higher: 1.41 for the first, 0 for the second.

Compared with “ACGAAAACATGGACCGGTTTTCCCGGTAATCCGTATTTGCT (site ACGAAAACTAG)”, “ACGAAAACATGGACCGGTTTTCCCGGTAATCCGTATTTGCT (site CCGAAAACTAG)” is lower in “recombinant UMI read abundance (log10)” value: 1.81 for the first, 0 for the second.

First: ACGAAAACATGGACCGGTTTTCCCGGTAATCCGTATTTGCT (site GCGAAAACTAG)
Second: ACGAAAACATGGACCGGTTTTCCCGGTAATCCGTATTTGCT (site TCGAAAACTAG)
The “recombinant UMI read abundance (log10)” value of the first is higher: 0.581 for the first, 0 for the second.

First: ACGAATCCATGGACCGGTTTTCCCGGTAATCCGTATTTGTT (site ACGAATCCTAA)
Second: ACGAATCCATGGACCGGTTTTCCCGGTAATCCGTATTTGTT (site CGGAATCCTAA)
The “recombinant UMI read abundance (log10)” value of the first is higher: 1.32 for the first, 0 for the second.

“ACGACCACATGGACCGGTTTTCCCGGTAATCCGTATTTGTT (site ACGACCACTAA)” and “ACGACTACATGGACCGGTTTTCCCGGTAATCCGTATTTGAC (site AAGACTACTGT)” are within 0.2 log units of each other in “recombinant UMI read abundance (log10)” value: 1.29 for the first, 1.19 for the second.

Going from “ACGACTACATGGACCGGTTTTCCCGGTAATCCGTATTTGAC (site ACGACTACTGT)” to “ACGACTACATGGACCGGTTTTCCCGGTAATCCGTATTTGAC (site AGGACTACTGT)”, the “recombinant UMI read abundance (log10)” value falls from 2.45 to 0.613.

Going from “ACGACTACATGGACCGGTTTTCCCGGTAATCCGTATTTGAC (site ATGACTACTGT)” to “ACGAGGCCATGGACCGGTTTTCCCGGTAATCCGTATTTGCC (site ACGAGGCCTGG)”, the “recombinant UMI read abundance (log10)” value falls from 1.69 to 0.486.

Going from “ACGAGTCCATGGACCGGTTTTCCCGGTAATCCGTATTTGGG (site ACGAGTCCTCC)” to “ACGAGTGCATGGACCGGTTTTCCCGGTAATCCGTATTTGGT (site ACAAGTGCTAC)”, the “recombinant UMI read abundance (log10)” value rises from 0.00727 to 2.22.

First: ACGAGTGCATGGACCGGTTTTCCCGGTAATCCGTATTTGGT (site ACCAGTGCTAC)
Second: ACGAGTGCATGGACCGGTTTTCCCGGTAATCCGTATTTGGT (site ACGAGTGCTAC)
The “recombinant UMI read abundance (log10)” value of the first is lower: 0.837 for the first, 2.31 for the second.

Compared with “ACGAGTGCATGGACCGGTTTTCCCGGTAATCCGTATTTGGT (site ACTAGTGCTAC)”, “ACGCAATCATGGACCGGTTTTCCCGGTAATCCGTATTTGAT (site ACGCAATCTAT)” is higher in “recombinant UMI read abundance (log10)” value: 1.22 for the first, 2.55 for the second.

First: ACGCACGCATGGACCGGTTTTCCCGGTAATCCGTATTTGCA (site ACGCACGCTTG)
Second: ACGCCTACATGGACCGGTTTTCCCGGTAATCCGTATTTGAG (site ACGCCTACTCT)
The “recombinant UMI read abundance (log10)” value of the first is higher: 2.71 for the first, 0.69 for the second.

“ACGCGCACATGGACCGGTTTTCCCGGTAATCCGTATTTGTT (site ACGCGCACTAA)” and “ACGCGTCCATGGACCGGTTTTCCCGGTAATCCGTATTTGAC (site ACGCGTCCTGT)” are within 0.2 log units of each other in “recombinant UMI read abundance (log10)” value: 1.61 for the first, 1.55 for the second.

First: ACGGAACCATGGACCGGTTTTCCCGGTAATCCGTATTTGAG (site ACGGAACCTCT)
Second: ACGGAATCATGGACCGGTTTTCCCGGTAATCCGTATTTGTC (site ACGGAATCTGA)
The “recombinant UMI read abundance (log10)” value of the first is lower: 0 for the first, 1.95 for the second.

Going from “ACGGATTCATGGACCGGTTTTCCCGGTAATCCGTATTTGCG (site ACGGATTCTCG)” to “ACGTAGACATGGACCGGTTTTCCCGGTAATCCGTATTTGGG (site ACATAGACTCC)”, the “recombinant UMI read abundance (log10)” value falls from 2.66 to 0.351.

Compared with “ACGTAGACATGGACCGGTTTTCCCGGTAATCCGTATTTGGG (site ACCTAGACTCC)”, “ACGTAGACATGGACCGGTTTTCCCGGTAATCCGTATTTGGG (site ACGTAGACTCC)” is higher in “recombinant UMI read abundance (log10)” value: 0.0219 for the first, 0.4 for the second.

Compared with “ACGTAGACATGGACCGGTTTTCCCGGTAATCCGTATTTGGG (site ACTTAGACTCC)”, “ACGTCTACATGGACCGGTTTTCCCGGTAATCCGTATTTGTG (site ACATCTACTCA)” is higher in “recombinant UMI read abundance (log10)” value: 0.0197 for the first, 0.796 for the second.

“ACGTCTACATGGACCGGTTTTCCCGGTAATCCGTATTTGTG (site ACCTCTACTCA)” and “ACGTCTACATGGACCGGTTTTCCCGGTAATCCGTATTTGTG (site ACGTCTACTCA)” are within 0.2 log units of each other in “recombinant UMI read abundance (log10)” value: 0.39 for the first, 0.512 for the second.

Compared with “ACGTCTACATGGACCGGTTTTCCCGGTAATCCGTATTTGTG (site ACTTCTACTCA)”, “ACGTCTGCATGGACCGGTTTTCCCGGTAATCCGTATTTGCT (site ACGTCTGCTAG)” is higher in “recombinant UMI read abundance (log10)” value: 0.0124 for the first, 1.98 for the second.

Compared with “ACTAACCCATGGACCGGTTTTCCCGGTAATCCGTATTTGGC (site ACTAACCCTGC)”, “ACTAATGCATGGACCGGTTTTCCCGGTAATCCGTATTTGGT (site ACTAATGCTAC)” is higher in “recombinant UMI read abundance (log10)” value: 0 for the first, 1.88 for the second.

“ACTAATGCATGGACCGGTTTTCCCGGTAATCCGTATTTGGT (site ACTACTGCTAC)” and “ACTAATGCATGGACCGGTTTTCCCGGTAATCCGTATTTGGT (site ACTAGTGCTAC)” are within 0.2 log units of each other in “recombinant UMI read abundance (log10)” value: 0.116 for the first, 0.00699 for the second.

Compared with “ACTAATGCATGGACCGGTTTTCCCGGTAATCCGTATTTGGT (site ACTATTGCTAC)”, “ACTACAACATGGACCGGTTTTCCCGGTAATCCGTATTTGAG (site ACTAAAACTCT)” is lower in “recombinant UMI read abundance (log10)” value: 0.568 for the first, 0.00762 for the second.

First: ACTACAACATGGACCGGTTTTCCCGGTAATCCGTATTTGAG (site ACTACAACTCT)
Second: ACTACAACATGGACCGGTTTTCCCGGTAATCCGTATTTGAG (site ACTAGAACTCT)
The “recombinant UMI read abundance (log10)” value of the first is higher: 1.22 for the first, 0.216 for the second.

First: ACTACAACATGGACCGGTTTTCCCGGTAATCCGTATTTGAG (site ACTATAACTCT)
Second: ACTAGAACATGGACCGGTTTTCCCGGTAATCCGTATTTGAA (site ACTAGAACTAT)
The “recombinant UMI read abundance (log10)” value of the first is higher: 0.494 for the first, 0 for the second.

“ACTAGAACATGGACCGGTTTTCCCGGTAATCCGTATTTGAA (site ACTAGAACTCT)” and “ACTAGAACATGGACCGGTTTTCCCGGTAATCCGTATTTGAA (site ACTAGAACTGT)” are the same in “recombinant UMI read abundance (log10)” value: 0 for the first, 0 for the second.

Going from “ACTAGAACATGGACCGGTTTTCCCGGTAATCCGTATTTGAA (site ACTAGAACTTT)” to “ACTAGAACATGGACCGGTTTTCCCGGTAATCCGTATTTGAC (site ACTAGAACTAT)”, the “recombinant UMI read abundance (log10)” value falls from 1.45 to 0.00676.

First: ACTAGAACATGGACCGGTTTTCCCGGTAATCCGTATTTGAC (site ACTAGAACTCT)
Second: ACTAGAACATGGACCGGTTTTCCCGGTAATCCGTATTTGAC (site ACTAGAACTGT)
The “recombinant UMI read abundance (log10)” value of the first is lower: 0.0218 for the first, 2.13 for the second.

Going from “ACTAGAACATGGACCGGTTTTCCCGGTAATCCGTATTTGAC (site ACTAGAACTTT)” to “ACTAGAACATGGACCGGTTTTCCCGGTAATCCGTATTTGAT (site ACTAGAACTAT)”, the “recombinant UMI read abundance (log10)” value rises from 0.322 to 1.24.

“ACTAGAACATGGACCGGTTTTCCCGGTAATCCGTATTTGAT (site ACTAGAACTCT)” and “ACTAGAACATGGACCGGTTTTCCCGGTAATCCGTATTTGAT (site ACTAGAACTGT)” are within 0.2 log units of each other in “recombinant UMI read abundance (log10)” value: 0.0111 for the first, 0 for the second.

“ACTAGAACATGGACCGGTTTTCCCGGTAATCCGTATTTGAT (site ACTAGAACTTT)” and “ACTAGATCATGGACCGGTTTTCCCGGTAATCCGTATTTGAG (site ACTAGAACTCT)” are within 0.2 log units of each other in “recombinant UMI read abundance (log10)” value: 0.0117 for the first, 0.00628 for the second.

“ACTAGATCATGGACCGGTTTTCCCGGTAATCCGTATTTGAG (site ACTAGACCTCT)” and “ACTAGATCATGGACCGGTTTTCCCGGTAATCCGTATTTGAG (site ACTAGAGCTCT)” are within 0.2 log units of each other in “recombinant UMI read abundance (log10)” value: 0.0156 for the first, 0.00838 for the second.

Going from “ACTAGATCATGGACCGGTTTTCCCGGTAATCCGTATTTGAG (site ACTAGATCTCT)” to “ACTAGTACATGGACCGGTTTTCCCGGTAATCCGTATTTGAG (site ACTAGAACTCT)”, the “recombinant UMI read abundance (log10)” value falls from 2.52 to 0.692.

“ACTAGTACATGGACCGGTTTTCCCGGTAATCCGTATTTGAG (site ACTAGCACTCT)” and “ACTAGTACATGGACCGGTTTTCCCGGTAATCCGTATTTGAG (site ACTAGGACTCT)” are within 0.2 log units of each other in “recombinant UMI read abundance (log10)” value: 0.0245 for the first, 0.0174 for the second.

Compared with “ACTAGTACATGGACCGGTTTTCCCGGTAATCCGTATTTGAG (site ACTAGTACTCT)”, “ACTAGTGCATGGACCGGTTTTCCCGGTAATCCGTATTTGGG (site ACTAGTGCTAC)” is lower in “recombinant UMI read abundance (log10)” value: 1.35 for the first, 0.0186 for the second.

Going from “ACTAGTGCATGGACCGGTTTTCCCGGTAATCCGTATTTGGG (site ACTAGTGCTCC)” to “ACTAGTGCATGGACCGGTTTTCCCGGTAATCCGTATTTGGG (site ACTAGTGCTGC)”, the “recombinant UMI read abundance (log10)” value falls from 0.376 to 0.

Going from “ACTAGTGCATGGACCGGTTTTCCCGGTAATCCGTATTTGGG (site ACTAGTGCTTC)” to “ACTAGTGCATGGACCGGTTTTCCCGGTAATCCGTATTTGTT (site ACTAGTGCTAA)”, the “recombinant UMI read abundance (log10)” value rises from 0.021 to 1.35.
